Experimental data taken from the RepoRT retention time repository (doi:10.1021/acs.analchem.1c00972).
Structures can show the parent of a compound that is named as a salt.

Columns and labels:
Conditions in all cases: stereoisomer not certain
[1] = RP, Waters ACQUITY UPLC BEH C18, 100 × 1 mm, 1.7 µm, 50 °C, 0.3 mL/min, estimated dead time 0.17 min; A: water + 0.1% formic acid + 20 mM ammonium formate; B: methanol + 0.1% formic acid + 20 mM ammonium formate; gradient (min/%B) 0/0 15/100 21/100 22/0 30/0
[2] = RP, Waters ACQUITY UPLC BEH C18, 100 × 1 mm, 1.7 µm, 50 °C, 0.3 mL/min, estimated dead time 0.17 min; A: water + 10 mM ammonium bicarbonate; B: 10% water + 90% methanol + 10 mM ammonium bicarbonate; gradient (min/%B) 0/0 15/100 21/100 22/0 30/0
[3] = RP, Phenomenex Synergi Polar-RP, 100 × 3 mm, 2.5 µm, 40 °C, 0.4 mL/min, estimated dead time 1.1 min; A: water + 1 mM ammonium fluoride; B: methanol + 1 mM ammonium fluoride; C: acetonitrile; D: 50% isopropanol + 50% acetone; gradient (min/%B/%C/%D) 0/5/0/0 2/5/0/0 8/95/0/0 12/80/15/0 19/25/70/0 19.5/0/25/70 21.5/0/25/70 22.5/0/25/0 23/5/0/0

SMILES | LC retention time [1] [min] | LC retention time [2] [min] | LC retention time [3] [min]
N#Cc1nn(-c2c(Cl)cc(C(F)(F)F)cc2Cl)c(N)c1C(F)(F)F [Fipronil desulfinyl] | 15.1 | 15.4 | 10.9
O=C(O)C(F)(F)C(F)(F)C(F)(F)C(F)(F)C(F)(F)C(F)(F)F [Perfluoroheptanoic acid] | 13.8 | 13.9 | 11.3
N#Cc1nn(-c2c(Cl)cc(C(F)(F)F)cc2Cl)c(N)c1SC(F)(F)F [Fipronil sulfide] | 15.4 | 15.8 | 11
O=C(O)C(F)(F)C(F)(F)C(F)(F)C(F)(F)C(F)(F)F [Perfluorohexanoic acid] | 12.7 | 12.7 | 8.19
Oc1ccc(Cl)cc1Cc1cc(Cl)ccc1O [Dichlorophen] | 15.2 | 15.1 | 10.9
O=c1[nH]c2ccccc2s1 [2-hydroxybenzothiazole] | 10.6 | 10.5 | 9.61
N#Cc1c(O)c(Cl)c(Cl)c(C#N)c1Cl [Chlorothalonil-4-hydroxy] | 12.3 | 11.8 | 9.06
Oc1cccc2ccccc12 [1-Naphthol] | 12.5 | 12.7 | 10
O=S(=O)(O)c1ccc2ccccc2c1 [2-Naphthalene sulfonic acid] | 8.66 | 8.6 | 7.25
CCC(C)c1cc([N+](=O)[O-])cc([N+](=O)[O-])c1O (centres undefined) [Dinoseb] | 15.5 | 12.4 | 10
O=C(O)C(F)(F)C(F)(F)C(F)(F)C(F)(F)C(F)(F)C(F)(F)C(F)(F)F [Perfluorooctanoic acid] | 14.7 | 14.8 | 8.97
O=C(O)C(F)(F)C(F)(F)C(F)(F)C(F)(F)C(F)(F)C(F)(F)C(F)(F)C(F)(F)C(F)(F)F [Perfluorodecanoic acid] | 15.9 | 16.1 | 9.39
N#Cc1nn(-c2c(Cl)cc(C(F)(F)F)cc2Cl)c(N)c1S(=O)(=O)C(F)(F)F [Fipronil sulfone] | 15.7 | 16 | 11.1
NS(=O)(=O)C(F)(F)C(F)(F)C(F)(F)C(F)(F)C(F)(F)C(F)(F)C(F)(F)C(F)(F)F [Perfluorooctanesulfonamide] | 16.5 | 15.7 | 10.6

Second part, the compound after the results:

LC retention time [1] [min] | LC retention time [2] [min] | LC retention time [3] [min] | SMILES
14.3 | 13.2 | 9.15 | O=C(O)c1cc(Oc2ccc(Cl)cc2Cl)ccc1[N+](=O)[O-] [Bifenox free acid]
11.6 | 11.1 | 9.81 | CCOC(=O)c1ccc(O)cc1 [Ethylparaben]
17.2 | 17.4 | 9.97 | CCCCCCCCCCCCCCOS(=O)(=O)O [Tetradecylsulfate]
16.6 | 14.6 | 11.7 | CC(C)(c1cc(Br)c(O)c(Br)c1)c1cc(Br)c(O)c(Br)c1 [Tetrabromobisphenol A]
9.98 | 9.08 | 9.32 | COC(=O)c1ccc(O)cc1 [Methylparaben]
12.9 | 12.7 | 10.2 | CCCOC(=O)c1ccc(O)cc1 [Propylparaben]
6.54 | 6.33 | 2.74 | O=S(=O)(O)NC1CCCCC1 [Cyclamate]
5.37 | 4.9 | 3.01 | O=C1NS(=O)(=O)c2ccccc21 [Saccharin]
10.5 | 7.83 | 8.54 | O=C(O)CCC(=O)c1ccc(F)cc1 [4-Fluorobenzoylpropionic acid]
6.82 | 4.58 | 2.92 | CC(=O)Nc1ccc(O)c(C(=O)O)c1 [N-Acetyl mesalazine]
17.7 | 14.9 | 10.2 | O=C(Nc1ccc(Cl)c(Cl)c1)c1cc(Cl)cc(Cl)c1O [Tetrachlorosalicylanilide]
7.57 | 7.16 | 2.91 | O=C(O)C(F)(F)C(F)(F)C(F)(F)F [Perfluorobutanoic acid]
16.2 | 16.4 | 9.67 | CCCCCCCCCCCCOS(=O)(=O)O [Dodecyl sulfate]
2.96 | 2.77 | 2.01 | O=S(=O)(O)c1ccccc1 [Benzenesulfonic acid]
14.8 | 15.1 | 9.26 | CCCCCCCCCCOS(=O)(=O)O [Decyl sulfate]
5.2 | 4.67 | 7.62 | NS(=O)(=O)c1cc2c(cc1Cl)NCNS2(=O)=O [Hydrochlorothiazide]
17.7 | 17.7 | 9.93 | O=C(O)C(F)(F)C(F)(F)C(F)(F)C(F)(F)C(F)(F)C(F)(F)C(F)(F)C(F)(F)C(F)(F)C(F)(F)C(F)(F)C(F)(F)C(F)(F)F [Perfluorotetradecanoic acid]
9.08 | 3.3 | 9.25 | O=[N+]([O-])c1ccc(O)cc1 [4-Nitrophenol]
14.1 | 14.3 | 10.7 | CC(C)C(=O)Nc1ccc([N+](=O)[O-])c(C(F)(F)F)c1 [Flutamide]
